Entries after “also recorded” stand apart in the source; their conditions may differ. Where a SMILES comes first, the peptide text is derived from it. [ ]: non-standard residue; d: D form. Aib = CC(C)(N)C(=O)O
Columns and labels:
[1] = Body weight change in diet-induced obese rats over 27 days, Compound A1 with or without exenatide; format: in vivo, rat
[2] = Solubility in water or saline at room temperature, visual inspection; format: physicochemical
Text: Samples were visually inspected for clarity of the sample, any appearance of turbidity or haziness.

[3] = Clearance following intravenous infusion, acylated peptides (1-hour infusion, 0.033 mg/kg); conditions: rat, in vivo, Table 8, male rats, unit inferred
[4] = Clearance at intravenous infusion rate of 10 mcg/kg/hr; conditions: for clearance: rat, in vivo, 10 mcg/kg/hr
[5] = Body weight change in DIO Long Evans rats after 13 days continuous dosing by osmotic pump; conditions: for weight loss compared to vehicle control after 13 days: DIO LE rats, single agent; for ED50 of weight loss: DIO rats
Experimental: Rats were 15-17 weeks old at the start of the study. The rats were housed 1 per cage and given ad libitum access to high fat diet (Harlan TD.95217, 4.3 kcal/g) and water, maintained on a 12 hr light/dark cycle from 5:00 AM to 5:00 PM at 21° C. and 50% relative humidity and allowed to acclimate for at least 10 days prior to the surgeries. Baseline fat mass and non-fat mass measurements were taken 3 days before the start of peptide infusion using a QMR instrument (Echo Medical Systems, Houston, TX). Body weight measurements were taken 2 times/week starting three days before the surgery. Rats were randomized according to their percent body fat mass and/or body weight into the various treatment groups (n=4-6 rats/group). […] On the day of surgery, rats were anesthetized under isoflurane and the dorsal skin surface was shaved and cleansed. Rats were injected SC with Flunexin (2.5 mg/kg). A 1-2 cm surgical incision was made between the scapulae. Using blunt dissection, a 2-3 cm subcutaneous tunnel was created into which the sterile, filled, mini-osmotic pump was introduced. The skin opening was closed with a skin staple. Each rat was implanted with either one or two osmotic pumps containing vehicle or peptide according to their treatment group. All the data are presented as mean±SEM. The data were analyzed in Excel and/or Prism (GraphPad Software, Inc., La Jolla, CA) using one-way ANOVA to compare each group to the appropriate control group.

[6] = 3-hour intravenous infusion pharmacokinetics, peptide clearance (CL); conditions: male, rat, in vivo
[7] = Steady state plasma concentrations of glucagon analogs given subcutaneously by osmotic minipump; format: in vivo, rat
[8] = target: human GCGR (Homo sapiens, UniProt P47871); assay: Peptide-receptor mediated cAMP accumulation (LANCE Ultra cAMP) in CHO-K1 cells transfected with human GCGR; format: cell-based
[9] = target: human GLP-1R (Homo sapiens, UniProt P43220); assay: Peptide-receptor mediated cAMP accumulation (LANCE Ultra cAMP) in CHO-K1 cells transfected with human GLP-1R; format: cell-based
[10] = Stability in water or saline at 37° C. and room temperature, 30 days, LC/MS and HPLC purity; format: physicochemical
Text: Samples were withdrawn at a regular interval for 30 days and analyzed by LC/MS and HPLC for determination of purity and mass of the degradation product.

[11] = 3-hour subcutaneous infusion pharmacokinetics; conditions: male, rat, in vivo
Experimental: Peptides were formulated in sterile saline and administered as a 3-hour subcutaneous infusion to non-fasted male Wistar Han or Sprague-Dawley rats (n=3 per group) at a final dose of 0.3 or 0.1 mg/kg via a cannula placed into the subcutaneous space between the scapulae. […] Plasma was prepared by centrifugation and stored at −80° C. until analysis.
Protein Precipitation: All 96-well plates were coated with a blocking agent to mitigate non-specific binding of peptides. Plasma samples (75 uL) were added to a 96-well plate containing 200 uL of 2:1 ethanol:acetonitrile containing 0.1% TFA and mixed well via aspiration. Plates were capped, vortex-mixed and centrifuged. Supernatants (215 uL) were transferred to a clean 96-well plate, evaporated to dryness under nitrogen flow and then reconstituted in 75 μL of 20% acetonitrile in water containing 0.10% formic acid.
Solid-Phase Extraction: Samples were diluted 3-fold with 5% NH4OH (aq) and loaded onto an Oasis MAX microElution plate (Waters Corp, Milford, MA) that had been pre-conditioned with 200 uL each of methanol and 5% NH4OH (aq). The plate was washed with 200 uL 5% NH4OH (aq), followed by 200 uL 20% acetonitrile in water. […]
All calibration standards were prepared in control rat plasma containing K2EDTA and protease inhibitor cocktail. […] Peptides were quantified my monitoring one or more product ions produced from a multiply charged parent ion.

[12] = target: T1, hGIPR (Homo sapiens, UniProt P48546); assay: Human in vitro potency (pEC50) at hGIPR; format: cell-based
T1 sequence (P48546 22-466): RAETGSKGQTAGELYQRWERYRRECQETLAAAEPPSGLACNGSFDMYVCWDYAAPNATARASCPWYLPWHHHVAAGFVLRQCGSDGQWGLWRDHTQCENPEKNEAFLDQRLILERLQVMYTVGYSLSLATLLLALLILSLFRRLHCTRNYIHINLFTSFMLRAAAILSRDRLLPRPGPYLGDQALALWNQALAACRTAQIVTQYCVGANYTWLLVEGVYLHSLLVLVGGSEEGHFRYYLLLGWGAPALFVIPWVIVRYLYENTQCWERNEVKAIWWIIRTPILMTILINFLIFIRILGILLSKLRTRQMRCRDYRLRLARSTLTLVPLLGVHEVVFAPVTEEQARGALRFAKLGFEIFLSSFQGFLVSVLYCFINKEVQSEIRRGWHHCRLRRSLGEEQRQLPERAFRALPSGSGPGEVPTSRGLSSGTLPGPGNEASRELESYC

human GLP-1R, sequence (P43220 24-463): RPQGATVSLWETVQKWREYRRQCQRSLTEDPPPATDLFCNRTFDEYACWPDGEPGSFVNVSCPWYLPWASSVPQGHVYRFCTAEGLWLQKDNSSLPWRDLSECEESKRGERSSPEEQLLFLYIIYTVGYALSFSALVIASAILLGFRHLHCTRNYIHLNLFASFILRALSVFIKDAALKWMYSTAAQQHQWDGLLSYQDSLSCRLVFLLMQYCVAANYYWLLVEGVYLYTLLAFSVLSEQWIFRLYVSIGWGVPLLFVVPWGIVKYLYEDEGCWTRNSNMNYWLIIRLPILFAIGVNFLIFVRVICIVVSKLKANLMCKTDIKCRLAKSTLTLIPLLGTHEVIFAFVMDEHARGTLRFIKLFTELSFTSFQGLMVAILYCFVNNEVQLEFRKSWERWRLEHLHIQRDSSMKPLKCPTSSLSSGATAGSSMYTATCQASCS
human GCGR, sequence (P47871 26-477): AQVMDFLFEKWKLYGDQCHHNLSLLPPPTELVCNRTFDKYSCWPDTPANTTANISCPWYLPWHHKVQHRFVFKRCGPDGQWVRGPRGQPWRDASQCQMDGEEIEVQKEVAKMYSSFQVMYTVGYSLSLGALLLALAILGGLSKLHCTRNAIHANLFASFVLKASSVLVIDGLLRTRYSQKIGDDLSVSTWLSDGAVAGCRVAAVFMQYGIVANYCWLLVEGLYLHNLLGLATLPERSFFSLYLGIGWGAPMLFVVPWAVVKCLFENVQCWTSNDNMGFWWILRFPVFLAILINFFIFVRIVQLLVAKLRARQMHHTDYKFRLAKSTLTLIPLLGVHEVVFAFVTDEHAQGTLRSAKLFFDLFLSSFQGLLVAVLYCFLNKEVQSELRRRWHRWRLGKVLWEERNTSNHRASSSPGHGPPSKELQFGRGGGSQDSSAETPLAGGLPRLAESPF

With `CC(C)C[C@H](NC(=O)[C@H](Cc1ccc(O)cc1)NC(=O)[C@H](CCCCN)NC(=O)[C@H](CO)NC(=O)[C@H](Cc1ccc(O)cc1)NC(=O)[C@H](CC(=O)O)NC(=O)[C@H](CO)NC(=O)[C@@H](NC(=O)[C@H](Cc1ccccc1)NC(=O)[C@@H](NC(=O)CNC(=O)[C@H](Cc1c[nH]cn1)NC(=O)[C@H](CO)NC(=O)[C@@H](N)Cc1ccc(O)cc1)[C@@H](C)O)[C@@H](C)O)C(=O)N[C@@H](CC(=O)O)C(=O)NC(C)(C)C(=O)N[C@@H](CCCCN)C(=O)N[C@@H](Cc1ccc(O)cc1)C(=O)N[C@@H](C)C(=O)N[C@@H](CCC(N)=O)C(=O)N[C@@H](CCC(=O)O)C(=O)N[C@@H](Cc1ccccc1)C(=O)N[C@H](C(=O)NC(C)(C)C(=O)N[C@@H](Cc1c[nH]c2ccccc12)C(=O)N[C@@H](CC(C)C)C(=O)N[C@@H](CCC(=O)O)C(=O)N[C@@H](CC(=O)O)C(=O)N[C@@H](CCC(=O)O)C(=O)N1CCC[C@H]1C(=O)N[C@@H](CO)C(=O)N[C@@H](CO)C(=O)NCC(=O)N[C@@H](C)C(=O)N1CCC[C@H]1C(=O)N1CCC[C@H]1C(=O)N1CCC[C@H]1C(=O)N[C@@H](CO)C(=O)O)C(C)C` [Compound A1] (H-YSHGTFTSDYSKYLD[Aib]KYAQEFV[Aib]WLEDEPSSGAPPPS-OH; N-terminus assumed) the “interaction of the combination with exenatide on weight loss” value ([1]; 27 days, Compound A1 24 and 50 mcg/kg/day with exenatide 10 mcg/kg/day) was “supra-additive (synergistic) effect”, the “maximal weight loss response, combination with exenatide” value ([1]; 27 days, Compound A1 with exenatide 10 mcg/kg/day) was ~47% and the “increase in body weight over 27 days” value ([1]; DIO rats, Compound A1 alone 7.5 mcg/kg/day) was ~4%. For the same compound, the “increase in body weight over 27 days” value ([1]; DIO rats, Compound A1 alone 24 mcg/kg/day) was ~4%, the “decrease in body weight over 27 days” value ([1]; DIO rats, Compound A1 alone, highest infusion rate (50 mcg/kg/day)) was 16.8% and the solubility ([2]; Table 3, room temperature, read-out: Solubility in water) was > 200 mg/mL. For the same compound, the “Physiochemical Properties Solubility” value ([2]; Table 6, unit not given) was >200, the clearance ([3]; read-out: CL (IV/SubQ)) was 11.5 mL/min/kg and the half-life ([3]; read-out: T ½ (converted)) was 49.8 min. For the same compound, the “clearance compared with exenatide and glucagon” value ([4]; FIG. 7) was “less than that of exenatide and glucagon”, the mode of clearance ([4]; FIG. 7, Table 5 values close to GFR) was “cleared from plasma via glomerular filtration” and the clearance ([4]; Rat PK Cl, Table 6, unit inferred) was 11.5 mL/min/kg. For the same compound, the clearance ([4]; iv, CL mL/min/kg, Table 5, intravenous infusion rate 10 mcg/kg/hr) was 10.6 mL/min/kg, the “weight loss compared to vehicle control after 13 days” value ([5]; 0.01 mg/kg/day) was 5.6% and the “weight loss compared to vehicle control after 13 days” value ([5]; 0.03 mg/kg/day) was 3.5%. For the same compound, the “weight loss compared to vehicle control after 13 days” value ([5]; 0.1 mg/kg/day) was 10%, the “weight loss compared to vehicle control after 13 days” value ([5]; 0.3 mg/kg/day) was 22.6% and the “ED50 of weight loss” value ([5]; 13 days infusion, fits sharing vehicle response and common maximum (FIG. 9)) was 51 µg/kg/day. For the same compound, the “ED50 of weight loss” value ([5]; 13 days sc minipump, 4-parameter sigmoid fit of each agent (FIG. 8; Table 6 prints no unit)) was 65.7 µg/kg/day, the “% Weight loss Single” value ([5]; Table 6, rat in vivo) was 26% and the “in vivo potency compared with exenatide” value ([5]; administered alone) was “almost as potent in vivo as exenatide”. For the same compound, the “maximal weight loss relative to exenatide” value ([5]; greater, administered alone) was 2.3 fold, the “common maximal weight loss response” value ([5]; over 13 days, fits constrained to share it (FIG. 9)) was 27.2% and the clearance [6] was 11.5 mL/min/kg. The mode of clearance ([7]; FIG. 6, steady state plasma concentration vs inulin/GFR) was “consistent with being via glomerular filtration; also recorded: cleared mainly by glomerular filtration”, the subcutaneous bioavailability ([7]; sc osmotic minipump, rat) was “high” and the EC50 [8] was 0.0251 nM. For the same compound, the “activation profile at the human glucagon receptor (GCGR)” value ([8]; FIG. 1A) was “nearly equipotent on GCGR”, the “activation profile at the human GLP-1 receptor (GLP-1R)” value ([9]; FIG. 1B) was “inactive on GLP-1R” and the EC50 ([9]; GLP-1R pEC50, Table 7, GLP-1R) was > 1 µM. The EC50 ([9]; Human in vitro Potency (pEC50) hGLP-1R, Table 6) was 6.31 µM, the EC50 ([9]; hGLP1 pEC50 (cAMP mean (n = 3): 11 point curve starting at 1 nM, Table 3)) was 6.31 µM and the EC50 ([9]; hGLP1 pEC50 (cAMP) mean (n = 9): 11 point curve starting at 500 uM, Table 2A) was 6.31 µM. The “Stability 1 mg/ml in water at 37 degC” value ([10]; Table 3, % printed only in cells of A1-A6) was >71%, the “Physiochemical Properties Stability” value ([10]; Table 6) was >95% and the bioavailability [11] was 74%. For the same compound, the EC50 [12] was > 10 µM.
